Holding throughout (assay): inhibition of tumour cell growth, NCI panel, 48 h
Test [1] concerns SK-MEL-2 melanoma.
Test [2] has as its system HL-60(TB) leukemia.
Test [3] relates to SK-OV-3 ovarian.
Test [4] deals with NCI-H23 lung.
Test [5] has as its system UACC-257 melanoma.
Test [6] relates to RPMI-8226 leukemia.
The subject of test [7] is U251 CNS.
Test [8] concerns SNB-19 CNS.
Test [9] concerns LOX IMVI melanoma.
Test [10] relates to CCRF-CEM leukemia.

Where “and” joins values, the source holds several entries; their conditions need not be identical. Equal entries are not always repeated.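 The compound was tested at five concentrations on cells cultured in 96-well plates, with a 48-hour exposure period. Abbreviation: GI50, concentration required for 50% inhibition of growth. TGI marks complete inhibition of growth.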

In the case of `COc1ccc(/C=C\c2cc(OC)c(OC)c(OC)c2)c(O)c1O`, the GI50 in test [1] is 0.0705 µM; in test [3], 0.586 µM and 1.68 µM; in [4], 0.0598 µM and 0.0848 µM; in test [5], 0.142 µM; in test [6], 0.0635 µM; in [7], 0.0933 µM. Further, the GI50 is 0.0517 µM and 0.05 µM in test [8]; 0.0512 µM in [9]; 0.274 µM in [10]. For the same molecule, the TGI in test [1] is 33.3 µM and 7.62 µM; in test [2], 0.376 µM; in test [3], 15.1 µM and 48.3 µM; in [5] it was 28.7 µM and 52.3 µM; in [6], 20.9 µM and 9.14 µM; in [7] it was 18.7 µM and 6.09 µM. Moreover, the TGI in test [8] was 85.3 µM; in test [9], 16.9 µM and 8.07 µM; in test [10], 30.8 µM and 11.4 µM.

Regarding `CC1CC(C)C2=NOS3=C2C1=NO3` (stereo not drawn), the TGI in test [1], in test [2], in test [3], in test [4], in test [5] and in test [6] was above 100 µM each time. In addition, the TGI in test [7], in test [8], in test [9] and in test [10] was above 100 µM in each case.

As for `CN(C)CCNC(=O)c1cccc2ncc(-c3ccccc3)nc12`, the TGI in test [1] was found to be 27.9 µM; in test [2] it was 42.4 µM; in test [3], 82.6 µM; in test [4], 32.2 µM; in test [5] it was 31.3 µM; in test [7] it was 41.7 µM. In addition, the TGI in test [8] worked out at 78.7 µM; in [9], 29.5 µM; in test [10], 56.8 µM.

Consider `COc1ccc2c(c1)C(=O)c1c-2n(CCCN)c(=O)c2cc(OC)c(OC)cc12`, for which the GI50 is 2.55 µM in [1]; below 0.0245 µM in [2]; 0.499 µM in test [3]; 3.58 µM in test [5]; 0.0491 µM in [7]; 0.0529 µM in test [9]. In [10], the GI50 is below 0.01 µM. Also, the TGI turned out to be 10.7 µM in test [3], 19.3 µM in test [5], 1.63 µM in test [7] and 0.554 µM in [9].

Regarding `CN(C)CCC1(C2=CCCC2)CC/C(=C\c2ccccc2Cl)C1=O` (stereo not drawn), the TGI in [1] is 27.6 µM; in [2], 19.6 µM; in test [4], 30 µM; in test [5], 28.4 µM; in test [6], above 100 µM; in test [7], 25.5 µM. The TGI in test [8] is 27.8 µM; in [10], 29 µM.

Take `CCCN1C(=O)/C(=C/c2ccc(O)cc2)SC1=Nc1ccc(OC)cc1`: the GI50 in test [1] was 37.1 µM; in test [2] it was 17.1 µM; in [3] it was 18.1 µM; in [4] it was 16.2 µM; in test [5] it was 17.3 µM; in [6], 12.4 µM. Further, the results for the GI50 in test [7], in [8] and in test [9] were 12.5 µM, 19.6 µM and 15.4 µM, respectively. In addition, the TGI is above 100 µM in test [1]; 50.2 µM in test [2]; 41.9 µM in test [3]; 32.4 µM in test [4]; 31.7 µM in [5]; 42 µM in test [6]. The figures for the TGI in test [7], in test [8] and in test [9] were 26 µM, 45.5 µM and 30.8 µM, respectively.

As to `CO[C@@H]1[C@H]2[C@@H](C)c3ccoc3C[C@@H]2[C@@]2(C)CC[C@H](OC(=O)c3ccccc3)[C@](C)(C(=O)O)[C@]2(O)[C@@H]1OC(=O)c1ccccc1`, the GI50 in test [1] was 24.1 µM; in test [2], 14.7 µM; in test [4], 10.6 µM; in test [5] it was 15.9 µM; in test [6], 15.4 µM; in test [7], 5.87 µM. The GI50 in [8] is 16.1 µM; in test [9] it was 6.73 µM; in [10], 22.7 µM. Moreover, the TGI in test [1] was above 50 µM; in [2], above 50 µM; in [4], 28.5 µM; in [5], 40.7 µM; in test [6], above 50 µM; in test [7], 12 µM. Also, the TGI is above 50 µM in test [8], 13.6 µM in [9] and above 50 µM in [10].

Regarding `C/C(CCn1[nH]c(=O)ccc1=O)=N\Nc1ccc([N+](=O)[O-])cc1[N+](=O)[O-]`, the TGI in test [1], in test [2], in test [4], in test [5], in test [6] and in test [8] was above 100 µM each time. In addition, the TGI in [9] and in test [10] was above 100 µM throughout.

As to `Cc1c(C2Cc3ccccc3N2)c2ccccc2n1C` (stereo not drawn), the TGI in test [1], in test [2], in test [3], in test [4], in [5] and in [7] was above 100 µM each time. For the same molecule, the TGI in test [8], in test [9] and in test [10] was above 100 µM in each case.

For `Cc1nc(Nc2ccccc2)sc1C(=O)CC(=O)C(=O)NC12CC3CC(CC(C3)C1)C2`, the TGI in [1], in test [2], in test [3], in test [4], in test [5] and in test [7] was above 100 µM in each case. Further, the TGI in [8], in [9] and in test [10] was above 100 µM throughout.

Regarding `CCCCCCN(C)Cc1ccc(OCCOc2ccc(CN(C)CCCCCC)cc2)cc1`, the GI50 in test [1] was 1.61 µM; in [2] it was 1.91 µM; in test [3], 1.64 µM; in test [4], 1.52 µM; in test [5] it was 0.448 µM; in [6], 1.62 µM. Besides, the GI50 in test [7] is 1.08 µM; in test [8], 1.71 µM; in test [9] it was 1.35 µM. Besides, the TGI came to 3.08 µM in test [1]; 4.51 µM in test [2]; 3.09 µM in [3]; 3.42 µM in test [4]; 1.84 µM in test [5]; 25.4 µM in [6]. Also, the values for the TGI in test [7], in [8] and in test [9] were 2.37 µM, 3.87 µM and 2.87 µM, respectively.

Regarding `Nc1ccc2c(c1)Oc1c(F)c(F)cc3c(=O)c(C(=O)O)cn-2c13`, the TGI in test [1], in test [2], in test [3], in [4], in [6] and in test [7] was above 100 µM each time. Besides, the TGI in [8] and in test [10] was above 100 µM each time.

On to `CCOC(=O)c1c2cccccc2n2c(=O)cc(C)nc12`, for which the TGI in [1], in test [2], in test [4], in [5], in [6] and in test [7] was above 100 µM each time. The TGI in test [8], in test [9] and in [10] was above 100 µM throughout.

With `C=C1C(=O)OC2CC3(C)CCCC(C)C3=CC12` (stereo not drawn), the TGI in test [1] worked out at 28.5 µM; in test [2] it was 2.59 µM; in test [3], 56.1 µM; in [4] it was 19.9 µM; in test [5], 18.1 µM; in test [7], 22.2 µM. Further, the TGI in test [8] was 25.8 µM; in [9], 4.42 µM; in test [10], 4.53 µM.

Consider `CCOC(=O)C1SC(=Nc2ccc(Cl)cc2C)N=C1C` (stereo not drawn), for which the TGI in test [1] is 35.8 µM; in [2], 27.1 µM; in [4], 34.8 µM; in test [5], 51.9 µM; in test [7], 31.6 µM; in test [8] it was above 100 µM. The molecule also had a TGI in [9] of 28.2 µM.

As for `CC(=N)N(C)O`, the TGI in [1], in test [2], in test [3], in test [4], in test [5] and in test [6] was above 100 µM throughout. Further, the TGI in [7] is above 100 µM; in [9], 31.3 µM; in test [10], 53.1 µM.

Consider `CCCCCCCCCCCCCC(=O)OCC1OC(n2cc(F)c(=O)[nH]c2=O)C(N)C(OC(=O)CCCCCCCCCCCCC)C1O` (stereo not drawn), for which the TGI in test [1], in [2], in test [3], in test [4], in [5] and in [6] was above 100 µM each time. In addition, the TGI in test [7], in test [8] and in [9] was above 100 µM throughout.

In the case of `O=C(Nc1cccnc1)c1ccc2ccc3ccc(C(=O)Nc4cccnc4)nc3c2n1`, the GI50 was 0.911 µM in test [1]; 0.132 µM in test [2]; 0.202 µM in [4]; 0.0876 µM in test [6]; 0.0613 µM in test [7]; 0.0845 µM in test [8]. For the same molecule, the GI50 is 0.18 µM in [9] and 0.169 µM in test [10]. For the same molecule, the TGI in test [1], in test [2], in test [4], in test [6], in test [7] and in test [8] was above 100 µM each time. Also, the TGI in test [9] and in test [10] was above 100 µM throughout.

The record behind these values is PubChem BioAssay (NCI).
